Results published in patent US8802654B2, “Antiviral compounds” (Adenovir Pharma AB, priority 2009, dated 2014).

Tested on: HAdV-37 virions
Experiment: Binding assay: inhibition of the binding of 35S-labeled HAdV-37 virions to HCE cells
Type: cell-based
Details: monovalent sialic acid, stated for comparison with Table 1
Protocol: HCE (human corneal epithelial) and A549 cells were grown as previously described (Araki-Sasaki, K., Ohasi, K. Y., Sasabe, T., Hayashi, K., Watanabe, H., Tano, Y., Handa, H., 1995. “An SV-40-immortalized human corneal epithelial cell line and its characterization.” Invest. Ophtahlmol. 36, 614-621 and Amberg, N., Edlund, K., Kidd, A. H., Wadell, G., 2000a. Adenovirus type 37 uses sialic acid as a cellular receptor. J. Virol. 74, 42-48.).
HAdV37 (strain 1477) virions were produced as follows: 0.3 mL of HAdV37 inoculation material (prepared from infected A549 cells) was added to A549 cells (175 cm^2 flasks) and incubated for 2 h at 37° C. […] The specific radioactivity of labeled virions was determined to be 4×10^−6 cpm per virion. The identity of HAdV-37 was determined by digesting viral DNA with restriction enzymes and compared to established patterns for HAdV-37 prototype strain (Wadell, G., Sundell, G., de Jong, J. C., 1981. Characterization of candidate adenovirus 37 by SDS-polyacrylamide gel electrophoresis of virion polypeptides and DNA restriction site mapping. J. Med. Virol. 7, 119-125.). […]
After one additional hour, unbound virions were removed by washing, and the cell-associated radioactivity was measured with a Wallac 1409 scintillation counter (Perkin-Elmer). […]

CC(=O)N[C@H]1[C@H]([C@H](O)[C@H](O)CO)OC(O)(C(=O)O)C[C@@H]1O (stereo partly shown) [sialic acid]
IC50: 2 to 5 mM
